US20200384072A1, “THERAPY OF IONIZING RADIATION-INDUCED DISORDERS” (SCK-CEN, priority 2019, published 2020)

Tested on: TIME cells
Experiment: Cytokine detection (Magnetic Luminex) in supernatant after irradiation, TIME cells
Format: cell-based, human
Experimental: TICAE and TIME cells were seeded in a 6-well plate at a density of 2.5×10^5 cells/well in 5 to 6 biological replicates. Two to three days later, cells reached 100% confluence. At 30 minutes before X-ray exposure, cells were refreshed with medium with or without 100 μM TAT-Gap19 (Genosphere Biotechnologies, Paris, France). At 24 h, 48 h, 72 h and 7 d after irradiation, the supernatant was collected. Medium was changed only for the 7 d time point experiment at the fourth day with fresh medium alone or with medium supplemented with 100 μM TAT-Gap19. For the simultaneous detection of multiple cytokines in the supernatants, the Magnetic Luminex® Assay (R&D systems, Minneapolis, […]) was used following manufacturer's instructions. Briefly, supernatants, standards and microparticles were incubated into a 96-well plate which was pre-coated with cytokine-specific antibodies. The immobilized antibodies were able to bind the cytokines of interest after 2 h incubation, then the plate was washed and incubation with a biotinylated antibody cocktail specific to the cytokines of interest was performed for 1 h. A second wash was performed to remove the unbound biotinylated antibodies. Further, a streptavidin-phycoerythrin conjugate was added to each well to bind to the biotinylated antibodies. After a final wash, the microparticles were resuspended in buffer and read using the Luminex® MAGPIX Analyzer (R&D systems, Minneapolis, […]).
In order to normalize to cell number, DAPI staining was performed for the 48 h after irradiation time point. Briefly, cells were washed with phosphate buffered saline (PBS) and fixed with 4% paraformaldehyde (PFA) for 15 minutes at room temperature. Afterwards, the cells were washed with PBS and stained with 1 μg/mL 4′,6-Diamidine-2′-phenylindole (DAPI) dissolved in 1×TBST, 0.005 g/v % TSA blocking powder (PerkinElmer, FP1012) (TNB). After one hour, cells were washed with PBS and DAPI signals were visualized with the Nikon Eclipse Ti automated inverted wide-field epifluorescence microscope equipped with a 5× magnification (Plan Fluor, numerical aperture 0.6) dry objective and a Nikon IE2000-E camera controlled by the MS Elements software. The intensity of the DAPI signals was determined with the FIJI software. Cell count for 24 h after irradiation experiment was performed by Moxi Z Mini Automated Cell Counter (ORFLO Technologies, Ketchum, Id., USA) after trypsinization. For the 72 h and 7 d post-irradiation cell counts, we used IncuCyte ZOOM™ phase contrast imaging based on 49 images taken per well with the 10× objective.

TAT-Gap19: connexin mimetic peptide, amino-acids 128-136 of the CL of Cx43 (SEQ ID NO: 2), Gap19 linked to TAT sequence; Cx43 hemichannel inhibitor (YGRKKRRQRRRKQIEIKKFK)
E-selectin readout (100 μM TAT-Gap19, 0.1 Gy): decreased | IL-6 readout (100 μM TAT-Gap19, 0.1 Gy): decreased | IL-8 readout (100 μM TAT-Gap19, 0.1 Gy): decreased | PECAM-1 readout (100 μM TAT-Gap19, 0.1 Gy): decreased | TNF-α readout (100 μM TAT-Gap19, 0.1 Gy): decreased | VCAM-1 readout (100 μM TAT-Gap19, 0.1 Gy): decreased | CRP (radiation-induced increase) (100 μM TAT-Gap19, 5 Gy, 24 h): significantly reduced the increase | E-Selectin (radiation-induced increase) (100 μM TAT-Gap19, 5 Gy, 24 h): significantly reduced the increase | ICAM-1 (radiation-induced increase) (100 μM TAT-Gap19, 5 Gy, 24 h): significantly reduced the increase | IL-1B (radiation-induced increase) (100 μM TAT-Gap19, 5 Gy, 24 h): significantly reduced the increase | MCP-1 (radiation-induced increase) (100 μM TAT-Gap19, 5 Gy, 24 h): significantly reduced the increase | PECAM-1 (radiation-induced increase) (100 μM TAT-Gap19, 5 Gy, 24 h): significantly reduced the increase | TNF-α (radiation-induced increase) (100 μM TAT-Gap19, 5 Gy, 24 h): significantly reduced the increase | IL-6 (radiation-induced increase) (100 μM TAT-Gap19, 5 Gy, 24 h, 48 h and 7 d p.i.): significantly reduced these responses | Endothelin-1 (radiation-induced increase) (100 μM TAT-Gap19, 5 Gy, 24 h, 72 h and 7 d p.i.): significantly decreased these responses | VCAM-1 (radiation-induced increase) (100 μM TAT-Gap19, 5 Gy, 24 h and 7 d p.i.): significantly reduced these responses | IL-8 levels (100 μM TAT-Gap19, 5 Gy, 7 d p.i.): significantly decreased IL-8 levels | Endothelin-1 readout (100 μM TAT-Gap19, control and 0.1 Gy): decreased | IL-6 readout (100 μM TAT-Gap19, control and 0.1 Gy, 7 d p.i.): increased
